In patent US6676957B1 (priority 2000, dated 2004):

Experiments:
[1] = system: TSST-1 production by Staphylococcus aureus MN8; format: cell-based; settings: 24 hours at 35° C.
S. aureus MN8 = format: cell-based, Staphylococcus aureus; settings: 24 hours at 35° C.

## Laureth-4
[1]
  TSST-1: 531.8 ng/mL
S. aureus MN8
  Final [S. aureus]: 4.57 × 10^9 CFU/ml

## PPG-5 Laureth-5
[1]
  TSST-1: 609.2 ng/mL
S. aureus MN8
  Final [S. aureus]: 3.82 × 10^9 CFU/ml

## Steareth-2
[1]
  TSST-1: 680.7 ng/mL
S. aureus MN8
  Final [S. aureus]: 5.76 × 10^9 CFU/ml
